Laboratory results taken from ChEMBL document CHEMBL1201862, “PubChem BioAssay data set” (2004).
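Assay format: 96-well plates, 48-hour exposure. Abbreviation: GI50, concentration required for 50% inhibition of growth.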 Active and inactive are the calls of the source. Rule as the data show it: active = GI50 up to about 1.1 µM and inactive = higher.

Tests used:
Assay in all cases: NCI tumour cell line growth inhibition, 48 h
MDA-MB-231 = system: MDA-MB-231
U-251 = system: U-251
SK-MEL-28 = system: SK-MEL-28
NCI-H226 = system: NCI-H226
NCI-H522 = system: NCI-H522
Malme-3M = system: Malme-3M
786-0 = system: 786-0
SK-MEL-5 = system: SK-MEL-5
Hs-578T = system: Hs-578T
OVCAR-5 = system: OVCAR-5
CAKI-1 = system: CAKI-1
NCI-H460 = system: NCI-H460
OVCAR-8 = system: OVCAR-8
MDA-N = system: MDA-N
UACC-62 = system: UACC-62
SW-620 = system: SW-620
HOP-62 = system: HOP-62
NCI-H23 = system: NCI-H23
LOX IMVI = system: LOX IMVI
M14 = system: M14
ACHN = system: ACHN
K562 = system: K562
HOP-92 = system: HOP-92
SK-OV-3 = system: SK-OV-3
RPMI-8226 = system: RPMI-8226
HCC 2998 = system: HCC 2998
HT-29 = system: HT-29
HCT-116 = system: HCT-116
DU-145 = system: DU-145
SNB-19 = system: SNB-19
BT-549 = system: BT-549
OVCAR-4 = system: OVCAR-4
TK-10 = system: TK-10
SF-295 = system: SF-295
SF-268 = system: SF-268
SF-539 = system: SF-539
SR = system: SR
RXF 393 = system: RXF 393
SK-MEL-2 = system: SK-MEL-2
HCT-15 = system: HCT-15
EKVX = system: EKVX
UO-31 = system: UO-31
A498 = system: A498
SN12C = system: SN12C
COLO 205 = system: COLO 205
UACC-257 = system: UACC-257
T47D = system: T47D
KM12 = system: KM12
MDA-MB-435 = system: MDA-MB-435
NCI/ADR-RES = system: NCI/ADR-RES
OVCAR-3 = system: OVCAR-3
HL-60 = system: HL-60
IGROV-1 = system: IGROV-1
PC-3 = system: PC-3
CCRF-CEM = system: CCRF-CEM
A549 = system: A549
SNB-75 = system: SNB-75
MCF7 = system: MCF7
MOLT-4 = system: MOLT-4

CCN(CC)C(=S)SS(=O)(=O)c1ccc(F)cc1
GI50 (MDA-MB-231): 32.4 µM (inactive)
GI50 (U-251): 18.8 µM (inactive)
GI50 (SK-MEL-28): 14 µM (inactive)
GI50 (NCI-H226): > 100 µM (inactive)
GI50 (NCI-H522): 0.0552 µM (active)
GI50 (Malme-3M): 19.9 µM (inactive)
GI50 (786-0): 73.3 µM (inactive)
GI50 (SK-MEL-5): 7.41 µM (inactive)
GI50 (Hs-578T): 63 µM (inactive)
GI50 (OVCAR-5): > 100 µM (inactive)
GI50 (CAKI-1): 41 µM (inactive)
GI50 (NCI-H460): 42.9 µM (inactive)
GI50 (OVCAR-8): 32.1 µM (inactive)
GI50 (MDA-N): 63.2 µM (inactive)
GI50 (UACC-62): 19.9 µM (inactive)
GI50 (SW-620): 17.9 µM (inactive)
GI50 (HOP-62): 40.6 µM (inactive)
GI50 (NCI-H23): 76.4 µM (inactive)
GI50 (LOX IMVI): 19.6 µM (inactive)
GI50 (M14): 29.1 µM (inactive)
GI50 (ACHN): 43.1 µM (inactive)
GI50 (K562): 23.2 µM (inactive)
GI50 (HOP-92): 31.2 µM (inactive)
GI50 (SK-OV-3): > 100 µM (inactive)
GI50 (RPMI-8226): 17.7 µM (inactive)
GI50 (HCC 2998): > 100 µM (inactive)
GI50 (HT-29): 22 µM (inactive)
GI50 (HCT-116): 25.3 µM (inactive)
GI50 (DU-145): 37.9 µM (inactive)
GI50 (SNB-19): > 100 µM (inactive)
GI50 (BT-549): 46.1 µM (inactive)
GI50 (OVCAR-4): > 100 µM (inactive)
GI50 (TK-10): > 100 µM (inactive)
GI50 (SF-295): 75.3 µM (inactive)
GI50 (SF-268): > 100 µM (inactive)
GI50 (SF-539): 23 µM (inactive)
GI50 (SR): 0.348 µM (active)
GI50 (RXF 393): 18.8 µM (inactive)
GI50 (SK-MEL-2): 56.4 µM (inactive)
GI50 (HCT-15): 66.7 µM
GI50 (EKVX): > 100 µM (inactive)
GI50 (UO-31): 27.7 µM (inactive)
GI50 (A498): > 100 µM (inactive)
GI50 (SN12C): 34.5 µM (inactive)
GI50 (COLO 205): > 100 µM (inactive)
GI50 (UACC-257): 28.4 µM (inactive)
GI50 (T47D): 85.1 µM (inactive)
GI50 (KM12): 17.8 µM (inactive)
GI50 (MDA-MB-435): 38.9 µM (inactive)
GI50 (NCI/ADR-RES): 50.7 µM (inactive)
GI50 (OVCAR-3): > 100 µM (inactive)

CCOP(=O)(/C=C\n1ccc(N)nc1=O)OCC
GI50 (MDA-MB-231): > 100 µM (inactive)
GI50 (U-251): > 100 µM (inactive)
GI50 (SK-MEL-28): > 100 µM (inactive)
GI50 (NCI-H226): > 100 µM (inactive)
GI50 (NCI-H522): 47.4 µM (inactive)
GI50 (HL-60): > 100 µM (inactive)
GI50 (786-0): > 100 µM (inactive)
GI50 (SK-MEL-5): > 100 µM (inactive)
GI50 (Hs-578T): 0.349 µM (active)
GI50 (OVCAR-5): > 100 µM (inactive)
GI50 (IGROV-1): > 100 µM (inactive)
GI50 (CAKI-1): > 100 µM (inactive)
GI50 (NCI-H460): > 100 µM (inactive)
GI50 (OVCAR-8): > 100 µM (inactive)
GI50 (MDA-N): > 100 µM (inactive)
GI50 (UACC-62): > 100 µM (inactive)
GI50 (PC-3): > 100 µM (inactive)
GI50 (SW-620): > 100 µM (inactive)
GI50 (HOP-62): > 100 µM (inactive)
GI50 (NCI-H23): > 100 µM (inactive)
GI50 (LOX IMVI): > 100 µM (inactive)
GI50 (M14): > 100 µM (inactive)
GI50 (ACHN): > 100 µM (inactive)
GI50 (K562): > 100 µM (inactive)
GI50 (SK-OV-3): > 100 µM (inactive)
GI50 (RPMI-8226): > 100 µM (inactive)
GI50 (HT-29): > 100 µM (inactive)
GI50 (CCRF-CEM): > 100 µM (inactive)
GI50 (HCT-116): > 100 µM (inactive)
GI50 (DU-145): > 100 µM (inactive)
GI50 (SNB-19): > 100 µM (inactive)
GI50 (BT-549): > 100 µM (inactive)
GI50 (OVCAR-4): > 100 µM (inactive)
GI50 (TK-10): > 100 µM (inactive)
GI50 (SF-295): > 100 µM (inactive)
GI50 (A549): > 100 µM (inactive)
GI50 (SNB-75): > 100 µM (inactive)
GI50 (SF-268): > 100 µM (inactive)
GI50 (MCF7): > 100 µM (inactive)
GI50 (SF-539): > 100 µM (inactive)
GI50 (RXF 393): > 100 µM (inactive)
GI50 (SK-MEL-2): > 100 µM (inactive)
GI50 (HCT-15): > 100 µM
GI50 (EKVX): > 100 µM (inactive)
GI50 (MOLT-4): > 100 µM (inactive)
GI50 (SN12C): > 100 µM (inactive)
GI50 (COLO 205): > 100 µM (inactive)
GI50 (UACC-257): > 100 µM (inactive)
GI50 (T47D): > 100 µM (inactive)
GI50 (KM12): > 100 µM (inactive)
GI50 (MDA-MB-435): > 100 µM (inactive)
GI50 (NCI/ADR-RES): > 100 µM (inactive)
GI50 (OVCAR-3): > 100 µM (inactive)

CN(C)c1ccc(C2SCC(=O)N2NS(=O)(=O)c2cccc(C(=O)O)c2)cc1 (centres undefined)
GI50 (MDA-MB-231): > 100 µM (inactive)
GI50 (U-251): > 100 µM (inactive)
GI50 (SK-MEL-28): 97.7 µM (inactive)
GI50 (NCI-H226): 52 µM (inactive)
GI50 (NCI-H522): 28.2 µM (inactive)
GI50 (HL-60): 16.3 µM (inactive)
GI50 (Malme-3M): 99.8 µM (inactive)
GI50 (786-0): 17.2 µM (inactive)
GI50 (SK-MEL-5): > 100 µM (inactive)
GI50 (Hs-578T): > 100 µM (inactive)
GI50 (OVCAR-5): > 100 µM (inactive)
GI50 (IGROV-1): > 100 µM (inactive)
GI50 (CAKI-1): > 100 µM (inactive)
GI50 (NCI-H460): 76.2 µM (inactive)
GI50 (OVCAR-8): 17.7 µM (inactive)
GI50 (MDA-N): > 100 µM (inactive)
GI50 (UACC-62): > 100 µM (inactive)
GI50 (PC-3): > 100 µM (inactive)
GI50 (SW-620): > 100 µM (inactive)
GI50 (HOP-62): > 100 µM (inactive)
GI50 (NCI-H23): > 100 µM (inactive)
GI50 (LOX IMVI): > 100 µM (inactive)
GI50 (M14): > 100 µM (inactive)
GI50 (ACHN): > 100 µM (inactive)
GI50 (K562): 35.6 µM (inactive)
GI50 (HOP-92): > 100 µM (inactive)
GI50 (SK-OV-3): > 100 µM (inactive)
GI50 (RPMI-8226): 45.9 µM (inactive)
GI50 (HCC 2998): > 100 µM (inactive)
GI50 (HT-29): > 100 µM (inactive)
GI50 (CCRF-CEM): 0.731 µM (active)
GI50 (HCT-116): > 100 µM (inactive)
GI50 (DU-145): > 100 µM (inactive)
GI50 (SNB-19): > 100 µM (inactive)
GI50 (BT-549): > 100 µM (inactive)
GI50 (TK-10): > 100 µM (inactive)
GI50 (SF-295): 94 µM (inactive)
GI50 (A549): 99.3 µM (inactive)
GI50 (SNB-75): > 100 µM (inactive)
GI50 (SF-268): > 100 µM (inactive)
GI50 (MCF7): 64.9 µM (inactive)
GI50 (SF-539): 46.3 µM (inactive)
GI50 (RXF 393): > 100 µM (inactive)
GI50 (SK-MEL-2): > 100 µM (inactive)
GI50 (HCT-15): 76.9 µM
GI50 (EKVX): > 100 µM (inactive)
GI50 (UO-31): 72.8 µM (inactive)
GI50 (MOLT-4): 42.8 µM (inactive)
GI50 (SN12C): > 100 µM (inactive)
GI50 (COLO 205): > 100 µM (inactive)
GI50 (UACC-257): > 100 µM (inactive)
GI50 (T47D): > 100 µM (inactive)
GI50 (KM12): > 100 µM (inactive)
GI50 (MDA-MB-435): > 100 µM (inactive)
GI50 (OVCAR-3): > 100 µM (inactive)
